Format in all cases: cell-based, human
Experiment [1] relates to MYB. In words: HiBiT protein abundance assay, MYB HiBiT K562 cell line. To be noted: HiBiT K562 cell line, 24 hours, top dose 10 μM; read-out: Effect on protein abundance, MYB (IC50 category). In outline: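 K562 knock-in lines with endogenous HiBiT-tagged target, 10,000 cells/well in IMDM + FBS, treated 24 h at 37° C with 10-point 3-fold dilutions (top 10 μM final; DMSO ≤0.25%). Lytic Nano-Glo HiBiT luminescence normalized to untagged K562 baseline and DMSO controls; IC50 = concentration giving 50% abundance via four-parameter fit.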
(With HiBiT, luminescence reflects the tagged protein that the partner subunit can reach.)

Experiment [2] relates to SMN2 mRNA. In words: RT-qPCR splicing assay, SMN2 canonical junction (CJ) mRNA. Particulars: Homo sapiens; Table 5 panel; canonical junction qPCR; compound concentration having 50% response in CJ decrease; read-out: SMN2 IC50 (decrease in CJ mRNA levels). An outline of the steps: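 A673 cells (DMEM/10% FBS) or K562 cells (IMDM/10% FBS) were treated 24 h at 37° C. with 11-point 3-fold dilutions (top 10 uM, ≤0.25% DMSO). Canonical-junction mRNA was quantified in lysates by RT-qPCR, normalized to GAPDH, GUSB or PPIA.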
(Real-time PCR tracks product formation cycle by cycle.)

For experiment [3], the system named is Target C. In words: HiBiT protein abundance assay, Target C (Promega Nano-Glo HiBiT Lytic Detection System, knock-in K562 cell line). Particulars: Homo sapiens, K562, 24 h, HiBiT K562 cell line, 24 hours, top dose 10 μM; read-out: Effect on protein abundance, Target C (IC50 category). An outline of the steps:
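Knock-in K562 cells carrying HiBiT-tagged Target C, 10,000 per well, treated 24 h at 37 °C with 10-point threefold dilutions (top 10 μM final, ≤0.25% DMSO). Lytic HiBiT luminescence read; response normalised to unmodified K562 and DMSO controls, four-parameter fit interpolated at 50% for IC50.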

As usually defined, the IC50 is the concentration that gives 50% inhibition. `Cc1cn2cc(-c3cc(F)c4c(=O)n([C@H]5CCNC[C@@H]5F)cnc4c3)cc(F)c2n1` (relative stereo) [Compound 341, 5-fluoro-7-(8-fluoro-2-methylimidazo[1,2-a]pyridin-6-yl)-3-(trans-3-fluoropiperidin-4-yl)quinazolin-4(3H)-one]: the IC50 is 100 to 1000 nM in experiment [1], less than 100 nM in experiment [2] and 1000 to 10000 nM in experiment [3].
On the same counts, the results for `Cc1cn2cc(-c3cc(F)c4c(=O)n([C@H]5CCN[C@@H](C)C5)cnc4c3)cc(F)c2n1` (relative stereo) [Compound 343, cis-5-fluoro-7-(8-fluoro-2-methylimidazo[1,2-a]pyridin-6-yl)-3-(2-methylpiperidin-4-yl)quinazolin-4(3H)-one] are less than 100 nM, less than 100 nM and 100 to 1000 nM.
For the compound `Cc1cn2nc(-c3cc(F)c4c(=O)n([C@H]5CCNC6(CC6)C5)cnc4c3)cc(C)c2n1` (single isomer, unassigned) [Compound 357], the IC50 in experiment [1], in experiment [2] and in experiment [3] was less than 100 nM each time.
For the compound `CN1CCN(c2ccc3c(=O)n(-c4ccc5nn(C)cc5c4)cnc3c2)CC1` [Compound 152], the IC50 in experiment [1], in experiment [2] and in experiment [3] was greater than 10000 nM throughout.
As for `Cn1cc2cc(-n3cnc4cc(N5CCNCC5)ccc4c3=O)ccc2n1` [Compound 153], the IC50 in experiment [1] was greater than 10000 nM; in experiment [2], 1000 to 10000 nM; in experiment [3], greater than 10000 nM.
As for `Cc1cc(-c2ccc3c(=O)n(C4CCN(C)CC4)cnc3c2)cc2cn(C)nc12` [Compound 156], the results for the IC50 in experiment [1], in experiment [2] and in experiment [3] were 1000 to 10000 nM, 100 to 1000 nM and greater than 10000 nM, respectively.
On the same counts, the results for `Cc1cc(-c2ccc3c(=O)n(C4CC(C)(C)NC(C)(C)C4)cnc3c2)cc2cn(C)nc12` [Compound 157] are 1000 to 10000 nM, 1000 to 10000 nM and 1000 to 10000 nM.
On the same counts, the results for `Cn1cc2cc(-n3cnc4cc(C5=CCNCC5)ccc4c3=O)ccc2n1` [Compound 158] are 1000 to 10000 nM, greater than 10000 nM and 1000 to 10000 nM.
On the same counts, the results for `CN1CC=C(c2ccc3c(=O)n(-c4ccc5nn(C)cc5c4)cnc3c2)CC1` [Compound 159] are greater than 10000 nM, greater than 10000 nM and greater than 10000 nM.
Regarding `CCN1CCC(n2ncc3cc(-c4cc(C)c5nc(C)cn5n4)ccc3c2=O)CC1` [Compound 266], the IC50 was 100 to 1000 nM in experiment [1], less than 100 nM in experiment [2] and 100 to 1000 nM in experiment [3].
On to `Cc1cn2nc(-c3ccc4c(c3)CCN(C3CCNC(C)(C)C3)C4=O)cc(C)c2n1` (stereo not drawn) [Compound 267], for which the results for the IC50 in experiment [1], in experiment [2] and in experiment [3] were 100 to 1000 nM, less than 100 nM and 1000 to 10000 nM, respectively.
On the same counts, the results for `Cc1cn2nc(-c3ccc4c(c3)CCN(C3CCN(C)CC3)C4=O)cc(C)c2n1` [Compound 268] are 100 to 1000 nM, less than 100 nM and greater than 10000 nM.
On the same counts, the results for `Cc1cn2nc(-c3ccc4c(c3)CCN(C3CCNC3)C4=O)cc(C)c2n1` (stereo not drawn) [Compound 269] are 1000 to 10000 nM, 1000 to 10000 nM and 1000 to 10000 nM.
On to `CCN1CCC(N2CCc3cc(-c4cc(C)c5nc(C)cn5n4)ccc3C2=O)CC1` [Compound 270], for which the IC50 in experiment [1] is 100 to 1000 nM; in experiment [2], 100 to 1000 nM; in experiment [3] it was greater than 10000 nM.
On to `Cc1cn2nc(-c3ccc4c(=O)n(C5CCN(C)C5)ncc4c3)cc(C)c2n1` (stereo not drawn) [Compound 271], for which the IC50 in experiment [1] was in the range of 1000 to 10000 nM; in experiment [2], 100 to 1000 nM; in experiment [3], 1000 to 10000 nM.
For `Cc1cn2nc(-c3ccc4c(=O)n([C@@H]5CCN[C@H](C)C5)ncc4c3)cc(C)c2n1` [Compound 272], the half-maximal inhibitory concentration (IC50) in experiment [1] was 100 to 1000 nM; in experiment [2] it was less than 100 nM; in experiment [3], 100 to 1000 nM.
For the compound `Cc1cn2nc(-c3ccc4c(=O)n(C5CCNC6(CC6)C5)ncc4c3)cc(C)c2n1` (stereo not drawn) [Compound 274], the IC50 in experiment [1], in experiment [2] and in experiment [3] was less than 100 nM throughout.
In the case of `Cc1cn2cc(-c3ccc4c(=O)n(C5CCNCC5)ccc4c3)cc(F)c2n1` [Compound 276], the IC50 in experiment [1], in experiment [2] and in experiment [3] was less than 100 nM throughout.
Consider `Cc1cn2nc(-c3ccc4c(=O)n([C@@H]5CCN(C)[C@H](C)C5)ncc4c3)cc(C)c2n1` [Compound 277], for which the IC50 in experiment [1] is 100 to 1000 nM; in experiment [2], less than 100 nM; in experiment [3] it was 100 to 1000 nM.
Turning to `Cc1cn2nc(-c3ccc4c(=O)n([C@H]5CCN(C)[C@H](C)C5)ncc4c3)cc(C)c2n1` [Compound 278], the IC50 in experiment [1], in experiment [2] and in experiment [3] was less than 100 nM each time.
In the case of `Cc1cn2nc(-c3ccc4c(=O)n(C5CCNC(C)(C)C5)ncc4c3)cc(C)c2n1` (stereo not drawn) [Compound 279], the figures for the half-inhibitory concentration (IC50) in experiment [1], in experiment [2] and in experiment [3] were 100 to 1000 nM, less than 100 nM and less than 100 nM, respectively.
Turning to `Cc1cn2nc(-c3ccc4c(=O)n([C@@H]5C[C@H]6CC[C@@H](C5)N6)ncc4c3)cc(C)c2n1` [Compound 280], the figures for the IC50 in experiment [1], in experiment [2] and in experiment [3] were 100 to 1000 nM, less than 100 nM and 100 to 1000 nM, respectively.
Consider `Cc1cn2nc(-c3ccc4c(c3)CCN([C@@H]3CCN[C@H](C)C3)C4=O)cc(C)c2n1` [Compound 281], for which the IC50 in experiment [1] lay in the range of 100 to 1000 nM; in experiment [2], 100 to 1000 nM; in experiment [3], 1000 to 10000 nM.
As to `Cc1cn2nc(-c3ccc4c(c3)CCN(C3CCN(C)C3)C4=O)cc(C)c2n1` (stereo not drawn) [Compound 282], the IC50 is 1000 to 10000 nM in experiment [1], 1000 to 10000 nM in experiment [2] and greater than 10000 nM in experiment [3].
On to `Cc1cn2nc(-c3ccc4c(=O)n(C5CCCNCC5)ncc4c3)cc(C)c2n1` (stereo not drawn) [Compound 283], for which the results for the IC50 in experiment [1], in experiment [2] and in experiment [3] were 100 to 1000 nM, less than 100 nM and 100 to 1000 nM, respectively.
`O=c1c2ccc(-c3cn[nH]c3)cc2ncn1C1CCNCC1` [Compound 284]: the IC50 in experiment [1] is 1000 to 10000 nM; in experiment [2], 1000 to 10000 nM; in experiment [3], greater than 10000 nM.
Take `Cc1nc2c(F)cc(-c3ccc4c(=O)n(C5CCNCC5)cnc4c3)cc2s1` [Compound 285]: the IC50 in experiment [1] was 100 to 1000 nM; in experiment [2], less than 100 nM; in experiment [3] it was 1000 to 10000 nM.
On the same counts, the results for `Cc1cn2cc(-c3ccc4c(=O)n(C5CCNCC5)cnc4c3)nc2c(C)n1` [Compound 286] are 100 to 1000 nM, 100 to 1000 nM and 1000 to 10000 nM.
Take `Cc1cn2nc(-c3ccc4c(=O)n(C5CCNCC5)cnc4c3)nc2c(C)n1` [Compound 287, 7-{6,8-dimethyl-[1,2,4]triazolo[1,5-a]pyrazin-2-yl}-3-(piperidin-4-yl)quinazolin-4-one]: the half-inhibitory concentration (IC50) in experiment [1] is 100 to 1000 nM; in experiment [2], less than 100 nM; in experiment [3], 100 to 1000 nM.
On to `Cc1cn2nc(-c3ccc4c(=O)n(C5CCN(C)CC5)cnc4c3)nc2c(C)n1` [Compound 288, 7-{6,8-dimethyl-[1,2,4]triazolo[1,5-a]pyrazin-2-yl}1-3-(1-methylpiperidin-4-yl)quinazolin-4-one], for which the half-maximal inhibitory concentration (IC50) in experiment [1], in experiment [2] and in experiment [3] was 1000 to 10000 nM each time.
Consider `Cc1cn2nc(-c3ccc4c(=O)n(C5CCN(C)CC5)cnc4c3F)cc(C)c2n1` [Compound 290], for which the IC50 in experiment [1], in experiment [2] and in experiment [3] was 100 to 1000 nM throughout.
`Cc1cn2cc(-c3ccc4c(=O)n(C5CCNCC5)cnc4c3)cc(Cl)c2n1` [Compound 291]: the IC50 was 100 to 1000 nM in experiment [1], less than 100 nM in experiment [2] and 100 to 1000 nM in experiment [3].
As to `Cc1cn2cc(-c3ccc4c(=O)n(C5CCNCC5)cnc4c3)cc(C)c2n1` [Compound 292], the half-inhibitory concentration (IC50) was 100 to 1000 nM in experiment [1], less than 100 nM in experiment [2] and 1000 to 10000 nM in experiment [3].
On the same counts, the results for `Cc1cn2cc(-c3ccc4c(=O)n([C@@H]5CCN[C@@H](C)C5)cnc4c3)cc(F)c2n1` [Compound 293] are 100 to 1000 nM, less than 100 nM and 1000 to 10000 nM.
On the same counts, the results for `Cc1cn2cc(-c3ccc4c(=O)n(C5CCN[C@@H](C)C5)cnc4c3)cc(F)c2n1` (stereo partly drawn) [Compound 294] are 100 to 1000 nM, less than 100 nM and 1000 to 10000 nM.
On the same counts, the results for `Cc1cn2cc(-c3ccc4c(=O)n([C@@H]5CCN[C@H](C)C5)cnc4c3)cc(F)c2n1` [Compound 295] are 1000 to 10000 nM, less than 100 nM and 1000 to 10000 nM.
On to `Cc1cn2cc(-c3ccc4c(=O)n([C@H]5CCN[C@H](C)C5)cnc4c3)cc(F)c2n1` [Compound 296], for which the IC50 is 100 to 1000 nM in experiment [1], less than 100 nM in experiment [2] and 100 to 1000 nM in experiment [3].
With `Cc1cn2cc(-c3ccc4c(=O)n(C5CCNCC5)cnc4c3)ncc2n1` [Compound 297], the results for the IC50 in experiment [1], in experiment [2] and in experiment [3] were 100 to 1000 nM, less than 100 nM and 1000 to 10000 nM, respectively.
On the same counts, the results for `Cc1cn2nc(-c3ccc4c(=O)n(C5CCNCC5)cnc4c3)cc2c(C)n1` [Compound 298] are 100 to 1000 nM, less than 100 nM and 1000 to 10000 nM.

Source of the values: patent publication US20250332173A1, “COMPOUNDS AND METHODS FOR MODULATING NUCLEIC ACID SPLICING” (REMIX THERAPEUTICS INC., priority 2021, published 2025).
